# Key:
# [1] = MICs of common antibiotics in the presence of sub-MIC levels of cationic peptides; format: cell-based; details: for MIC of antibiotic: No peptide
# Method: (§1) The minimum inhibitory concentrations of (MIC) of CEME, CEMA and melittin were determined for a number of different bacteria (Table 2). Briefly, cells were grown overnight at 37° C. in LB-S (Luria broth without any salt supplement) and diluted one in 10,000 in the same medium to give concentrations of about 10^4 to 10^5 CFU/ml. The broth dilutions were set up in a 96 well microtiter plate by putting 200 μl of LB-S containing the initial concentration of antibiotic or compound in column 1 and 100 μl of the same medium in columns 2-12. The compounds were diluted by taking 100 μl of broth from column 1 and mixing it with column 2, resulting in a one in two dilution. This was continued to column 10. Finally, 10 μl of bacteria were pipetted into columns 1-11, and the plates incubated overnight at 37° C. The next day the plates were scored for growth in the wells, and the MIC determined.
# The ability of the cationic peptides to work synergystically was examined by determining the MIC values for some commonly used antibiotics in the presence of sub-MIC levels of cationic peptides (Table 4). […] This may be due to the high membrane permeabilizing activity of CEMA (see below). However, the peptides did lower the MIC of polymyxin B, possibly due to the fact that they are all taken up by the same pathway and are therefore aiding each other's uptake. Of interest is the influence that melittin has on the MIC of polymyxin B, given the […] membrane permeabilizing activity of melittin.
# S. typhimurium = format: cell-based; details: C590 versus C587
# Method: as §1
# P. AERUGINOSA H309 [2] = format: cell-based; details: +80 mM Na+
# Method: as §1, with “Briefly,” for “The minimum inhibitory concentrations of (MIC) of CEME, CEMA and melittin were determined for a number of different bacteria (Table 2). Briefly,”
# E. cloacae = format: cell-based; details: strain 218S, Parent of 218R1
# Method: as §1
# E. coli = format: cell-based; details: strain UB1005, Parent of DC2
# Method: as §1
# [3] = tested on: P. aeruginosa H309 Whole Cells; format: binding; details: 5 mM HEPES pH 7.2, 5 mM KCN; average of at least three trials; read-out: I50 (DPx displacement from whole cells)
# P. AERUGINOSA H309 [4] = format: cell-based; details: 10 μM NPN; fluorescence increase
# Text: (§2) The second assay determined membrane permeability by the ability of 1-N-phenylnaphthylamine (NPN), a small fluorescent probe, to insert itself into the membrane. Normally, very little NPN can penetrate the outer membrane, but in the presence of a membrane permeabilizer it can insert into the hydrophobic membrane resulting in an increase in fluorescence (FIGS. 7 and 8). This N-phenylnaphthylamine uptake assay was previously described by Loh, et al., Antimicrobial Agents and Chemo., 26:546, 1984. Cells were prepared exactly the same as for the lysozyme lysis assay. 1-N-phenylnaphthylamine (NPN) was dissolved in acetone at a concentration of 500 μM. NPN fluorescence was measured in a Perkin-Elmer 650-10S fluorescent spectrophotometer using excitation and emission wavelengths set to 350 nm and 420 nm respectively, with slit widths of 5 nm. The assay was standardized by adding 20 μl of NPN (final concentration of 10 μM) and 10 μl of 0.64 mg/ml of polymyxin B (final concentration of 6.4 μg/ml) into 1 ml of cells, and adjusting the resulting fluorescence to read 90% deflection (90 arbitrary units). Various compounds were tested by adding 10 μl of different concentrations to a cuvette containing 1 ml of cells and 10 μM NPN. Permeabilizing activity was designated as the total fluorescence minus the fluorescence due to NPN alone. Following the fluorescence measurement, the OD600 of the cells was taken to ensure no significant cell lysis had occurred.
# E. cloacae 218R1 = format: cell-based; details: 10 μM NPN; fluorescence increase
# Text: as §2
# P. AERUGINOSA H309 [5] = assay: Lysozyme lysis assay (outer membrane permeabilization); format: cell-based
# Method: Membrane permeabilization by polycationic compounds was measured in two different assays. The first assay measured membrane disruption by the ability of lysozyme to reach the periplasm and cause cell lysis. […] The uptake of lysozyme into whole cells due to membrane permeabilization by various compounds was previously described in Hancock, et al., Antimicrobial Agents and Chemo., 19:777, 1981. Overnight cultures of P. aeruginosa H309 or E. cloacae 218R1 grown in LB-S were diluted 1 in 50 in fresh medium and grown to an OD600 =0.5-0.6. The cells were harvested in a Silencer H-103N clinical centrifuge at 1800 g for 10 min, washed once with one volume of assay buffer (5 mM HEPES pH 7.2, 5 mM KCN), and resuspended in the same buffer to an OD600 of 0.5. Assays consisted of 600 μl of cells with 50 μg/ml of chicken egg white lysozyme and varying concentrations of cationic compounds. Cell lysis was measured as a decrease in the OD600 in a Perkin-Elmer dual beam spectrophotometer. Parallel experiments performed without lysozyme enabled the measurement of the lytic activity of the compounds themselves. To test whether or not permeability to lysozyme could be inhibited by divalent cations, various concentrations of MgCl2 were added to the assay after the addition of lysozyme and before the addition of the test compound.
# E. coli strain DC2 = assay: Acid-urea gel overlay antibacterial activity; format: cell-based; details: 15% acid-urea gel overlaid with agar containing ≈10^5 cells, overnight at 37° C.
# Method: A sample of the partially purified CEME protein was electrophoresed on a 15% acid-urea gel, which separates proteins based on charge and mass (Panyim and Chalkey, Arch. Biochem Biophys., 130:337, 1969). The pH of the buffer is acidic (≈pH 5.0) and the polarity is reversed such that proteins migrate to the cathode. Therefore, the small cationic peptides run relatively quickly through the gel and thus can be easily identified. Antibacterial activity was tested as previously described (Hultmark, Eur. J. Biochem., 106:7, 1980). The gel was incubated in Mueller Hinton broth+0.2M NaPO4 pH 7.4 for 1 hr. It was overlaid with mls of the same media containing 0.6% agar and≈10^5 E. coli strain DC2, and then again with ml of the same media containing only 0.6% agar. […] Melittin is used as a positive control due to its antibacterial activity and similarity in size and PI values.
# P. aeruginosa H103 LPS = assay: Dansyl polymyxin (DPx) displacement from purified LPS; format: binding; details: on a μM basis
# Method: In this assay, DPx was incubated with LPS to saturate the binding sites and then, while polycationic compounds are titrated into the reaction, displacement of the DPx was monitored by the decrease in fluorescence (FIG. 9).
# The method of Moore, et al., (Antimicrobial Agents and Chemo., 29:496, 1987), was used to test how much DPx was needed to saturate the binding sties on LPS. Briefly, 5 μl samples of 100 μM DPx were titrated sequentially into 1 ml of 3 μg/ml of LPS until a maximum fluorescence was reached. The fluorescence was measured in a Perkin-Elmer 650-10S fluorescence spectrophotometer with an excitation wavelength of 340 nm and an emission wavelength of 485 nm using slit widths of 5 nm. […] For the binding inhibition assays (Moore, et al., Antimicrobial Agents and Chemo., 29:496, 1987), 2.5 μM DPx was added to 3 μg/ml of H103 LPS in 5 mM HEPES pH 7.2. The test compounds were added 5 μl at a time and the decrease in fluorescence due to displacement of the DPx from the LPS was recorded.
Compound,MIC of antibiotic in the presence of CEMA ([1]; CEMA 0.7 μg/ml) [µg/mL],MIC of antibiotic in the presence of CEMA ([1]; CEMA 1.4 μg/ml) [µg/mL],MIC of antibiotic in the presence of CEME ([1]; CEME 0.6 μg/ml) [µg/mL],MIC of antibiotic in the presence of CEME ([1]; CEME 1.2 μg/ml) [µg/mL],MIC of antibiotic in the presence of Melittin ([1]; Melittin 2 μg/ml) [µg/mL],MIC of antibiotic in the presence of Melittin ([1]; Melittin 4 μg/ml) [µg/mL],MIC of antibiotic [1] [µg/mL],Sensitivity of defensin sensitive strain C590 relative to parent (MIC change) (S. typhimurium),MIC (P. AERUGINOSA H309 [2]) [µg/mL],MIC (E. cloacae) [µg/mL],MIC (E. coli) [µg/mL],IC50 [3] [µM],Activity in opening up the membrane to NPN (P. AERUGINOSA H309 [4]),Activity in opening up the membrane to NPN (E. cloacae 218R1),"Permeabilization of the outer membrane to lysozyme, compared with polymyxin B (P. AERUGINOSA H309 [5]; 50 μg/ml lysozyme, decrease in OD600)",Cell lysis in the absence of lysozyme (P. AERUGINOSA H309 [5]; increased concentrations of peptide),Permeabilizer activity relative to gentamicin (P. AERUGINOSA H309 [5]; lysozyme lysis assay),Antibacterial activity in overlaid gel (E. coli strain DC2),Affinity for LPS compared with polymyxin B (P. aeruginosa H103 LPS)
C[C@@H](O)[C@H]1C(=O)N2C(C(=O)O)=C(SCCN=CN)C[C@H]12 [Imipenem],4,2,4,4,4,4,4,–,–,–,–,–,–,–,–,–,–,–,–
CN(C)[C@@H]1C(O)=C(C(N)=O)C(=O)[C@@]2(O)C(O)=C3C(=O)c4c(O)cccc4[C@@](C)(O)[C@H]3C[C@@H]12 [Tetracycline],8,4,8,8,8,8,8,–,–,–,–,–,–,–,–,–,–,–,–
"CC(C)(O/N=C(\C(=O)N[C@@H]1C(=O)N2C(C(=O)[O-])=C(C[n+]3ccccc3)CS[C@H]12)c1csc(N)n1)C(=O)O [Ceftazidime, ceftazidime]",2,2,4,4,4,2,4,unchanged,2,–,–,–,–,–,–,–,–,–,–
polymyxin B,0.5,0.12,0.5,0.25,0.5,0.06,1,four-fold more sensitive,–,0.5,0.5,2.04 ± 0.65,equally active,equally active,–,–,–,–,–
"CC[C@H](C)[C@H](NC(=O)CN)C(=O)NCC(=O)N[C@@H](C)C(=O)N[C@H](C(=O)N[C@@H](CC(C)C)C(=O)N[C@@H](CCCCN)C(=O)N[C@H](C(=O)N[C@@H](CC(C)C)C(=O)N[C@H](C(=O)N[C@H](C(=O)NCC(=O)N[C@@H](CC(C)C)C(=O)N1CCC[C@H]1C(=O)N[C@@H](C)C(=O)N[C@@H](CC(C)C)C(=O)N[C@H](C(=O)N[C@@H](CO)C(=O)N[C@@H](Cc1c[nH]c2ccccc12)C(=O)N[C@H](C(=O)N[C@@H](CCCCN)C(=O)N[C@@H](CCCNC(=N)N)C(=O)N[C@@H](CCCCN)C(=O)N[C@@H](CCCNC(=N)N)C(=O)N[C@@H](CCC(N)=O)C(=O)N[C@@H](CCC(N)=O)C(N)=O)[C@@H](C)CC)[C@@H](C)CC)[C@@H](C)O)[C@@H](C)O)C(C)C)C(C)C [Melittin, melittin]",–,–,–,–,–,–,–,two-fold more sensitive,–,–,–,–,less active,–,did not appear to be a good permeabilizer,cell lysis in the absence of lysozyme occurred,5- to 10 fold,zones of clearing,slightly lower affinities
gentamicin,–,–,–,–,–,–,–,two-fold more sensitive,–,0.5,1,39.1 ± 9.67,–,–,–,–,–,–,–

# From patent publication US5707855A (priority 1996, dated 1998)
